Measured values as given in patent US7148243B2, “Antivirals” (Medivir AB, priority 1998, dated 2006).
“And” between values parts separate entries of the source, which are not always exact repeats. Equal values may be shown once. Read-outs that look alike come from different tables or passages of the source.

Tests used:
[1] = molecular target: T1, HIV reverse transcriptase (Human immunodeficiency virus type 1 group M subtype B, UniProt P04585); assay: Binding kinetics by surface plasmon resonance (Biological Example 10); conditions: dissociation phase, 25° C., FIG. 3, versus prior art Santa Fe compound
T1 construct: made in house
Text: The rate of association and dissociation of an NNRTI on the target enzyme can be directly assayed by surface plasmon resonance methodology, wherein reverse transcriptase is immobilized on the surface of a chip and the binding or dissociation of the putative inhibitor is monitored by observing the changes in refractive index caused by the concomitant increase or decrease in chip mass. A compound of the invention (Example 8) was compared to the closest prior art compound from Santa Fe, as depicted above. Experiments were performed on a BIACORE® 2000 (Biacore AB, Uppsala, Sweden), using BIAEVALUATION® software (ver 3.0) for evaluation of data. The binding of the small analyte (NNRTI) to the much larger enzyme results in binding responses in the range of 10–20 RU. […] During the dissociation phase there is insignificant change in bulk refractive index, thus the binding of the different substances have been evaluated during this phase. […]
Interaction with inhibitors: Stock solutions of inhibitors (1 mg/ml in DMSO) were dissolved in RT running buffer (10 mM Hepes pH 7.6; 4 mM MgCl2; 0.25 mM spermine; 40 mM KCl; 0.5% TRITON® X-100; 3% DMSO; 0.5% fetal calf serum) to a concentration of […]. Binding of substance to the RT was analysed by injection of […] of the diluted substance, the flow rate was […] and the temperature 25° C. […]

[2] = test system: HIV-1 IIIB; assay: Time to resistance, weekly passage in MT4 cells (Biological Example 2); type: cell-based; conditions: growth of viral resistance against time, FIG. 1, versus closest Santa Fe compound
Method: 2×10^4 MT4 cells per well in a microtitre plate are infected with 5–10 TCID50 of HIV-1 IIIB. The compounds being tested are added at concentrations around ED50 using 8 duplicates per concentration. After 6 days of incubation the RT activity in 10 μl supernatent is measured.
The following procedure is followed at subsequent passages of the cultures once per week.: Virus produced at the concentration of test compound showing >50% of the RT activity of untreated infected cells (SIC, Starting Inhibitory Concentration) are passaged to fresh MT4 cells. 15 μl supernatent from each of the eight duplicates are transferred to cells without the test compound (control) and to cells with test compound at the same concentration, and additionally two respectively fivefold higher concentrations. (See Table 2 below)
When viral growth is permitted at the highest non-toxic concentration (5–40 μM), 2–4 parallel wells are collected and expanded to give material for sequence analysis and cross-wise resistance.
FIG. 1 plots the growth of viral resistance for a compound of the invention (Example 8) against time. Also plotted is the corresponding curve for the closest Santa Fe compound, mentioned above.

[3] = for plasma level of mother compound: 0.027 mmol/kg
Method: The rats used in pharmacokinetic examples were male Sprague-Dawley, with a weight about 200–250 g. The rats were fasted for at least 16 hours before the experiment, but had free access to water. The day before the experiment the rats were anaesthetized using a mixture of Efrane®, laughing gas and oxygen. A catheter was introduced into the vena jugularis. On the day of the experiment the weights of the rats were noted. The animals were shortly anaesthesized before the oral dose was given or the iv dose injected into the back of the neck. Each substance was administered to duplicate rats.
Compounds were dissolved in DMSO for intravenous administration.
The blood samples were centrifuged infectious agents neutralised with 1% SDS/64°/20 min and plasma stored at −20° C.
Plasma samples are prepared as follows: 40–100 μl of plasma is mixed with an equal volume of acetonitrile (10 seconds, Vibrofex). The sample is centrifuged (2 min, 14000 RPM) and 30 μl of the supernantant is injected into an HPLC system, as follows.
The vehicle was 10% acacia and 1% Tween in water or propylene glycol (asterisked).

[4] = test system: HIV; conditions: after only four weeks of therapy, virus isolated from patient serum; cited from earlier work
[5] = Release of mother compound from orally administered prodrug, plasma level (Biological Example 4); type: in vivo, Sprague Dawley rats; conditions: oral Example 7 0.027 mmol/kg in propylene glycol, released Example 6 assayed
Method: The release of a compound of Formula I from an orally administered prodrug of Formula II was monitored in rats. The compound of Example 7 was made up in a propylene glycol vehicle and orally administered to paired fasted male Sprague Dawley rats at a dose corresponding to 0.027 mmol/kg. At the indicated time intervals, 0.2 ml blood was collected from a catheter implanted in the […] jugularis, centrifuged and frozen for later analysis. The released drug of Formula I (Example 6) was assayed by HPLC.

[6] = Bioavailability in different species, plasma level of mother compound (Biological Example 7); type: in vivo; conditions: rat, Example 12 0.026 mmol/kg, acacia/Tween
Method: Each substance was administered to duplicate rats.
(§1) A prodrug of the invention of Formula II (Example 12) was administered at the same dose (0.026 mmol/kg) and in the same vehicle (10% acacia and 1% Tween in water) to rats and cynomolgus monkeys. Plasma levels of the mother compound of Formula I (Example 10) was measured as a function of time.
The corresponding data for the compound of Example 28 (rat: acacia/Tween, monkey:propylene glycol) are shown in Table 5A: […]

[7] = as above; type: in vivo, cynomolgus monkeys; conditions: monkey, Example 12 0.026 mmol/kg, acacia/Tween
Method: Monkeys were fasted for 12 hours prior to oral administration but had free access to water. The test compound was delivered via an infant nasogastric feeding tube. After 6 hours the monkeys received an apple.
as §1

In the case of `CCC(=O)c1ccc(F)c([C@@H]2C[C@@H]2NC(=O)Nc2ccc(C#N)cn2)c1O` (stereo in doubt) [Example 8, (1 S,2S)-N-(cis-2-(6-fluoro-2-hydroxy-3-propionoylphenyl)-cyclopropyl)-N′-(5-cyanopyrid-2-yl)-urea], the “dissociation rate from reverse transcriptase” value [1] is reported as “dissociating with the lowest rate” and the “rate of resistance development” value [2] is reported as “significantly slower rate of resistance development”.

In the case of `CCC(=O)c1ccc(F)c([C@@H]2C[C@@H]2NC(=O)Nc2ccc(C#N)cn2)c1OCOC(=O)c1ccc(O)cc1` (relative stereo) [Example 37, (1S, 2S)-N-[cis-2-(6-fluoro-2-O-3-propionylphenyl)-cyclopropyl]-N′-[2-(5-cyanopyridyl)]urea-O-methylene-4-hydroxybenzoate], the “plasma level of mother compound” value ([3]; propylene glycol (asterisked), 30 min) is reported as 0.234 µg/mL and 0.137 µg/mL, the “plasma level of mother compound” value ([3]; propylene glycol, 60 min) is reported as 0.273 µg/mL and 0.189 µg/mL and the “plasma level of mother compound” value ([3]; propylene glycol, 120 min) is reported as 0.111 µg/mL and 0.133 µg/mL. For the same molecule, the “plasma level of mother compound” value ([3]; propylene glycol, 240 min) was 0.056 µg/mL and 0.045 µg/mL, the “plasma level of mother compound” value ([3]; propylene glycol, 360 min) was 0.054 µg/mL and 0.056 µg/mL and the absolute oral bioavailability ([3]; determined relative to the iv dose, rats) was 28–33%.

For `Cc1ccnc2c1NC(=O)c1cccnc1N2C1CC1` [nevirapine], the “loss of sensitivity of patient virus to the drug versus virus from untreated patients” value [4] is given as 100 fold.

In the case of `CCC(=O)c1ccc(F)c([C@H]2C[C@H]2NC(=O)Nc2ccc(C#N)cn2)c1OC(=O)c1cccc(N)c1` (relative stereo) [Example 7, (1R, 2R)-N-[cis-2-(2-(3-aminophenylcarbonyloxy)-6-fluoro-3-propionylphenyl)-cyclopropyl]-N′-(5-cyanopyrid-2-yl)-urea], the “plasma level of mother compound” value ([5]; 30 min, individual rats) is reported as 0.24 µg/mL and 0.35 µg/mL, the “plasma level of mother compound” value ([5]; 60 min) is reported as 0.18 µg/mL and 0.28 µg/mL and the “plasma level of mother compound” value ([5]; 120 min) is reported as 0.13 µg/mL and 0.17 µg/mL. The “plasma level of mother compound” value ([5]; 240 min) was 0.07 µg/mL and 0.12 µg/mL and the “plasma level of mother compound” value ([5]; 360 min) was 0.05 µg/mL and 0.07 µg/mL.

In the case of `CCC(=O)c1ccc(F)c([C@@H]2C[C@@H]2NC(=O)Nc2ccc(Br)cn2)c1OC(=O)c1cccc(N)c1` (relative stereo) [Example 12, (1S, 2S)-N-[cis-2-(2-(3-aminophenylcarbonyloxy)-6-fluoro-3-propionylphenyl)cyclopropyl]-N′-(5-bromopyrid-2-yl)-urea], the “plasma level of mother compound” value ([6]; 30 min, mother compound Example 10) is reported as 0.09 µg/mL and 0.05 µg/mL, the “plasma level of mother compound” value ([6]; 60 min) is reported as 0.10 µg/mL and 0.07 µg/mL and the “plasma level of mother compound” value ([6]; 120 min) is reported as 0.09 µg/mL and 0.08 µg/mL. For the same molecule, the “plasma level of mother compound” value ([6]; 180 min) was 0.08 µg/mL, the “plasma level of mother compound” value ([6]; 240 min) was 0.06 µg/mL and 0.05 µg/mL and the “plasma level of mother compound” value ([7]; 45 min, mother compound Example 10) was 0.08 µg/mL and 0.04 µg/mL. The “plasma level of mother compound” value ([7]; 90 min) was 0.20 µg/mL and 0.26 µg/mL, the “plasma level of mother compound” value ([7]; 180 min) was 1.0 µg/mL and 0.55 µg/mL and the “plasma level of mother compound” value ([7]; 240 min) was 0.72 µg/mL and 0.54 µg/mL. The “plasma level of mother compound” value ([7]; 360 min) was 0.38 µg/mL and 0.39 µg/mL, the “plasma level of mother compound” value ([7]; 600 min) was 0.13 µg/mL and 0.10 µg/mL and the “plasma level of mother compound” value ([7]; 24 h) was 0.03 µg/mL.
